Source: US11547697B2, “Heterocyclic compounds and uses thereof” (MILLENNIUM PHARMACEUTICALS, INC., priority 2009, dated 2023)
Where two headings read alike, the source gives them in different places.

Key:
Format in all cases: biochemical
p110δ/p85α = p110δ/p85α (Homo sapiens (Human), UniProt O00329); test: PI 3-Kinase (human) HTRF assay, p110δ/p85α; details: read-out: PI3K δ IC50
p110γ = p110γ (Homo sapiens (Human), UniProt P48736); test: PI 3-Kinase (human) HTRF assay, p110γ; details: read-out: PI3K γ IC50
p110β/p85α = p110β/p85α (Homo sapiens (Human), UniProt P42338); test: PI 3-Kinase (human) HTRF assay, p110β/p85α; details: read-out: PI3K β IC50
p110α/p85α = p110α/p85α (Homo sapiens (Human), UniProt P42336); test: PI 3-Kinase (human) HTRF assay, p110α/p85α; details: read-out: PI3K α IC50
p110α/p85α, sequence (P42336 whole entry): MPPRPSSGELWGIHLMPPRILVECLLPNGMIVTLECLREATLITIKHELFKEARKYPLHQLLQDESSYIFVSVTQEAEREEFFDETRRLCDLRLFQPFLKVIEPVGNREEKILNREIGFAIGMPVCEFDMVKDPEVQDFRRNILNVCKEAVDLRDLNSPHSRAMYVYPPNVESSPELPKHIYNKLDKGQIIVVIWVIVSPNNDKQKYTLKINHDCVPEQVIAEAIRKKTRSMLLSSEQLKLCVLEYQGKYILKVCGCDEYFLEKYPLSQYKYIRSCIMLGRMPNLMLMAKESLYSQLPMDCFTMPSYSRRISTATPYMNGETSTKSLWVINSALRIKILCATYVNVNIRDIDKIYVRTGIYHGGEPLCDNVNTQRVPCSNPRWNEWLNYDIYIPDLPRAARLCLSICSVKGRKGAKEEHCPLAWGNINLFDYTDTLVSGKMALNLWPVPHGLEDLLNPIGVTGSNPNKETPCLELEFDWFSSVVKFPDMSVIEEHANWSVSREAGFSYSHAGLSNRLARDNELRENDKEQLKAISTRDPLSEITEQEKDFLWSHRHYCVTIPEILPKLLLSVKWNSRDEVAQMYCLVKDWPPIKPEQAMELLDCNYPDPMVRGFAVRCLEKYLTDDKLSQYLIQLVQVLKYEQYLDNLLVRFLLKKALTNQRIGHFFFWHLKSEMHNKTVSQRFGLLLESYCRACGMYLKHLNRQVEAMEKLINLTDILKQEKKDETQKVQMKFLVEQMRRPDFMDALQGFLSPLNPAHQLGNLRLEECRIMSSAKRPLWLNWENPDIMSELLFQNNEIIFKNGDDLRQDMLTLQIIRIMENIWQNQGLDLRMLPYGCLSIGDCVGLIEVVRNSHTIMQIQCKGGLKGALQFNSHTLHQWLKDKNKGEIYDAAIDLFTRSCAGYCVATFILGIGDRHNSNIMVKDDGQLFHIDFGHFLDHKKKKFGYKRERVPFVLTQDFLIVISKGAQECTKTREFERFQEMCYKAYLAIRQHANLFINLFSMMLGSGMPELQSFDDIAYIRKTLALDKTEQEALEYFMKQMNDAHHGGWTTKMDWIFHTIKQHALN
p110α/p85α, sequence (P27986 whole entry partner): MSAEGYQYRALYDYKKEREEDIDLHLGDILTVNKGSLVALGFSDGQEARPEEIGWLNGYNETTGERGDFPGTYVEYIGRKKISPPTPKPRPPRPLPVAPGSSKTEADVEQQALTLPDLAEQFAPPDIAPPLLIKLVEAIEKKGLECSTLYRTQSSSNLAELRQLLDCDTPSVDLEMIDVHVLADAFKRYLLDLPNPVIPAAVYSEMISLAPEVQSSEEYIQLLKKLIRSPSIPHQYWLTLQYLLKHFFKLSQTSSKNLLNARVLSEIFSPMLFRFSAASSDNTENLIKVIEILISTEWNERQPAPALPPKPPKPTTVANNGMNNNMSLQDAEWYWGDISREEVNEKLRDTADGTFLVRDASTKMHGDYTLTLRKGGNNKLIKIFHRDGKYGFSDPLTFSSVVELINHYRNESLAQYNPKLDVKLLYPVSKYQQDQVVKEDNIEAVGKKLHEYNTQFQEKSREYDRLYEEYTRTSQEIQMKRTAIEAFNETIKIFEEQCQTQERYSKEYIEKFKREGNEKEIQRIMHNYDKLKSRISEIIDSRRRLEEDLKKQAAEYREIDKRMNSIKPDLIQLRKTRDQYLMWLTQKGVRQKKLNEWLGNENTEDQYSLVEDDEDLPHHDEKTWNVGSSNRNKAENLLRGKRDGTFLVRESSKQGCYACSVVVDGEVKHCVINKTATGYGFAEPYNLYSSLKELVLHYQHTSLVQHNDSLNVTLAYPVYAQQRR

p110γ, sequence (P48736 whole entry): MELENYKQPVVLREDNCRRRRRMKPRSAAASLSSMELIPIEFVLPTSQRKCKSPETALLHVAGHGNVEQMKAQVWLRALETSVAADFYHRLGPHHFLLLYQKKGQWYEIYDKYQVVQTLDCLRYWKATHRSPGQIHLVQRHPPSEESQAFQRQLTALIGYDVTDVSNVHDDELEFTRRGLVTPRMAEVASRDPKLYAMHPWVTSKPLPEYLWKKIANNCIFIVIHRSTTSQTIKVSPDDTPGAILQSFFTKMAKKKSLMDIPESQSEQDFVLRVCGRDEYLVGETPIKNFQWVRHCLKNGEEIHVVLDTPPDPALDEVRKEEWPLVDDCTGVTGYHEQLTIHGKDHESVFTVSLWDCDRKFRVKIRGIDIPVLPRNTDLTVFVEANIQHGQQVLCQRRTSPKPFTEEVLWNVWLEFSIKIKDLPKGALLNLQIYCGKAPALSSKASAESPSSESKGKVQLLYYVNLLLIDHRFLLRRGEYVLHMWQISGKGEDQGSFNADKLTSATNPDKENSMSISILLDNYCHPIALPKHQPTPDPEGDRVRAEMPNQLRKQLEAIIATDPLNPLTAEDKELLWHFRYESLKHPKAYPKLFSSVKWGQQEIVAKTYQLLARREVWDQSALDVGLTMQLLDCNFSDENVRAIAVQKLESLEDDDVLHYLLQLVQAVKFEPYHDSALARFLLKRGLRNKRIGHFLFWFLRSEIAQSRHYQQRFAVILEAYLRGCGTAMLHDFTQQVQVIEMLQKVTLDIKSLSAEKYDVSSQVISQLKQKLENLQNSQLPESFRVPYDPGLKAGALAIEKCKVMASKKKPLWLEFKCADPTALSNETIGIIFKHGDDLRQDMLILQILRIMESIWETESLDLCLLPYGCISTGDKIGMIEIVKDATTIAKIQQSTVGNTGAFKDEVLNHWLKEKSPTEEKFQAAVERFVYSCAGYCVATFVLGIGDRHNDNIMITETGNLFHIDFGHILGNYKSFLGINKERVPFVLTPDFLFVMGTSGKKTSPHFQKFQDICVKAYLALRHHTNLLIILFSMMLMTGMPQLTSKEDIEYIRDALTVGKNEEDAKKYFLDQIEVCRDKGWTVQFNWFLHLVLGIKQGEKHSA
p110δ/p85α, sequence (O00329 whole entry): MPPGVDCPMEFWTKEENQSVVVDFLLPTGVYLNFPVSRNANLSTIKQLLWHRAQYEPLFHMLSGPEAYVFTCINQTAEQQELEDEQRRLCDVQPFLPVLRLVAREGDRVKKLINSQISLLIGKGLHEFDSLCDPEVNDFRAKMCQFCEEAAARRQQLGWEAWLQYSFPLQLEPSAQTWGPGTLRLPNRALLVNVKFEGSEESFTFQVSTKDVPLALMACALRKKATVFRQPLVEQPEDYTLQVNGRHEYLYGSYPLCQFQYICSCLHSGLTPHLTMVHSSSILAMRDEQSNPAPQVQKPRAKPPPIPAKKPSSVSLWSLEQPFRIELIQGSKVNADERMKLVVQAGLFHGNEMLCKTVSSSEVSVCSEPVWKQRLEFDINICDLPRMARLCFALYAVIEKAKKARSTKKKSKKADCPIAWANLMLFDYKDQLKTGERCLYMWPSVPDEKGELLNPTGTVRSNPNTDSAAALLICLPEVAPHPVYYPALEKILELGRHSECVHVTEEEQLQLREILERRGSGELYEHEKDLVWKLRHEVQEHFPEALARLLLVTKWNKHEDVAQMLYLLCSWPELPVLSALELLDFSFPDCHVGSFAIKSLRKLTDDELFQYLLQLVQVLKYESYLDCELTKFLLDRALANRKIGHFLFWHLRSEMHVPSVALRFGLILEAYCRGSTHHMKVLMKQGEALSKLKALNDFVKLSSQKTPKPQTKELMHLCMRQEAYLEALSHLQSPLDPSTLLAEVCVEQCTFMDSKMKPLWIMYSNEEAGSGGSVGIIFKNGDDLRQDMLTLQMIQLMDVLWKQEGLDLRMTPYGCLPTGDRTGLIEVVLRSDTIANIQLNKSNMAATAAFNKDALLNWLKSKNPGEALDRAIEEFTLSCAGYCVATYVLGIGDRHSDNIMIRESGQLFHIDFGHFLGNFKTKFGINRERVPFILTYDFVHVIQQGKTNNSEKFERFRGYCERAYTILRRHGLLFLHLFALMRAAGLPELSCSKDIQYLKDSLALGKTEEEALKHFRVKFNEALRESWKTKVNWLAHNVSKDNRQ
p110δ/p85α, sequence (P27986 whole entry partner): as the sequence (P27986 whole entry partner) above
p110β/p85α, sequence (P42338 whole entry): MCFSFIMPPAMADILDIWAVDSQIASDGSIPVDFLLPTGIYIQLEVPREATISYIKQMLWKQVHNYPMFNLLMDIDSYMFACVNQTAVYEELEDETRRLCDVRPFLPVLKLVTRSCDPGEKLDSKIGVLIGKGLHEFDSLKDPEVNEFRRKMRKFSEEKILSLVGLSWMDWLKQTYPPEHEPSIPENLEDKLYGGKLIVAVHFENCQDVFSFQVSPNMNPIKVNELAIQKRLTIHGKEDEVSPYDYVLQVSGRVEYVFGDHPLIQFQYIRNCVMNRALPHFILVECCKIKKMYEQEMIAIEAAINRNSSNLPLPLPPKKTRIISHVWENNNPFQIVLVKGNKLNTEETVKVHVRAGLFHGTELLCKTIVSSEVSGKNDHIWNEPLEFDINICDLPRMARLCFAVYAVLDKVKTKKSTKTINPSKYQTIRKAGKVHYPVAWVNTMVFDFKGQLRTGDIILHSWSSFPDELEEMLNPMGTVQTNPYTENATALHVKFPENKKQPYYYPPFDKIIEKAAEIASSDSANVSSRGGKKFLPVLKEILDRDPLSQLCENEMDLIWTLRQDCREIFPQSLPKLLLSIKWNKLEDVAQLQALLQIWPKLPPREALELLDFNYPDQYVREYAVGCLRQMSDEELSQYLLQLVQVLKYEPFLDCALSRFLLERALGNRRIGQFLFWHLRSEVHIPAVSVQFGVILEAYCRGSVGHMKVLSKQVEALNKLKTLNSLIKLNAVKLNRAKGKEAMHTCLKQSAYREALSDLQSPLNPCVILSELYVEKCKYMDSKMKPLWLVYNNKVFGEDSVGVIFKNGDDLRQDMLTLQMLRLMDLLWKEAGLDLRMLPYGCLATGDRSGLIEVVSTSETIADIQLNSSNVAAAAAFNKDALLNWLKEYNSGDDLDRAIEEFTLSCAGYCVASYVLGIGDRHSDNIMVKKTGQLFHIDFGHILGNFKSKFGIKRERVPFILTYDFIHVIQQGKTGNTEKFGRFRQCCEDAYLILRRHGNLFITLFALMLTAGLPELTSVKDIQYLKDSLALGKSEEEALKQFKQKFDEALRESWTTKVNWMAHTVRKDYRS
p110β/p85α, sequence (P27986 whole entry partner): as the sequence (P27986 whole entry partner) above

Structure (SMILES)	IC50 (p110δ/p85α) [nM]	IC50 (p110γ) [nM]	IC50 (p110β/p85α) [nM]	IC50 (p110α/p85α) [nM]	IC50 (p110δ/p85α; in vitro) [nM]	IC50 (p110γ; in vitro) [nM]	IC50 (p110β/p85α; in vitro) [nM]	IC50 (p110α/p85α; in vitro) [nM]
CN1CCC(N(C)c2cnc3ccc(-c4ccc5oc(N)nc5c4)cc3n2)CC1 [compound 151]	< 1000	< 10000	< 10000	< 100	–	–	–	–
CN1CCC(N(C)c2ncnc3ccc(-c4ccc5oc(N)nc5c4)cc23)CC1 [compound 155]	< 1000	< 100	< 100	< 100	–	–	–	–
Nc1nc2cc(-c3ccc4ncc(C(=O)N5CCC(N6CCOCC6)CC5)n4c3)ccc2o1 [compound 163]	< 10000	< 10000	< 10000	< 1000	–	–	–	–
CN(C)C1CCN(c2cnc3ccc(-c4ccc5oc(N)nc5c4)cc3n2)CC1 [compound 172]	< 100	< 1000	< 100	< 100	–	–	–	–
C[C@H]1CN(c2cnc3ccc(-c4ccc5oc(N)nc5c4)cc3n2)CCN1 [compound 178]	< 1000	< 1000	< 100	< 100	–	–	–	–
NCC(=O)N1CCN(c2cnc3ccc(-c4ccc5oc(N)nc5c4)cc3n2)CC1 [compound 192]	< 1000	< 1000	< 1000	< 100	–	–	–	–
CS(=O)(=O)CCN1CCN(C(=O)c2cnc3ccc(-c4ccc5oc(N)nc5c4)cn23)CC1 [compound 198]	–	–	–	–	< 10000	< 1000	< 10000	< 100
CS(=O)(=O)CCN1CCC(NC(=O)c2cnc3ccc(-c4ccc5oc(N)nc5c4)cn23)CC1 [compound 199]	–	–	–	–	< 100	< 100	< 10000	< 100
Nc1nc2cc(-c3ccc4ncc(NCCN5CCCC5)nc4c3)ccc2o1 [compound 219]	–	–	–	–	< 1000	< 1000	< 1000	< 1000
CCN(CC)CCCNc1cnc2ccc(-c3ccc4oc(N)nc4c3)cc2n1 [compound 220]	–	–	–	–	< 100	< 1000	< 1000	< 100
Nc1nc2cc(-c3ccc4ncc(NCCCN5CCCC5)nc4c3)ccc2o1 [compound 221]	–	–	–	–	< 100	< 100	< 1000	< 100
Nc1nc2cc(-c3ccc4ncc(N5CCN(C(=O)[C@H]6CCCN6)CC5)nc4c3)ccc2o1 [compound 225]	–	–	–	–	< 100	< 100	< 100	< 100
CN1CCN(CCNC(=O)c2cnc3ccc(-c4ccc5oc(N)nc5c4)cn23)CC1 [compound 306]	–	–	–	–	< 1000	< 1000	< 1000	< 100
Cc1ccn(C2CN(c3cnc4ccc(-c5ccc6oc(N)nc6c5)cc4n3)C2)n1 [compound 320]	–	–	–	–	< 10000	< 10000	< 10000	< 100
Nc1nc2cc(-c3ccc4ncc(N5CC(N6CC[C@H](O)C6)C5)nc4c3)ccc2o1 [compound 322]	–	–	–	–	< 10000	< 1000	< 1000	< 100
CCN(CC)C1CN(c2cnc3ccc(-c4ccc5oc(N)nc5c4)cc3n2)C1 [compound 324]	–	–	–	–	< 10000	< 1000	< 10000	< 100
Nc1nc2cc(-c3ccc4ncc(N5CC(N6CCNC(=O)C6)C5)nc4c3)ccc2o1 [compound 325]	–	–	–	–	< 10000	< 100	< 1000	< 100
CC(=O)N1CCN(C2CN(c3cnc4ccc(-c5ccc6oc(N)nc6c5)cc4n3)C2)CC1 [compound 327]	–	–	–	–	< 1000	< 1000	< 10000	< 100
CS(=O)(=O)N1CCN(C2CN(c3cnc4ccc(-c5ccc6oc(N)nc6c5)cc4n3)C2)CC1 [compound 328]	–	–	–	–	< 10000	< 10000	< 10000	< 100
CC(C)N1CCN(C2CN(c3cnc4ccc(-c5ccc6oc(N)nc6c5)cc4n3)C2)CC1 [compound 331]	–	–	–	–	< 10000	< 10000	< 10000	< 100

Next, values leading:

IC50 (p110δ/p85α) [nM]	IC50 (p110γ) [nM]	IC50 (p110β/p85α) [nM]	IC50 (p110α/p85α) [nM]	IC50 (p110δ/p85α; in vitro) [nM]	IC50 (p110γ; in vitro) [nM]	IC50 (p110β/p85α; in vitro) [nM]	IC50 (p110α/p85α; in vitro) [nM]	Structure (SMILES)
< 10000	< 10000	< 10000	< 1000	–	–	–	–	Nc1nc2cc(-c3ccc4ncc(C(=O)N5CCN(CC6CC6)CC5)n4c3)ccc2o1 [compound 161]
< 10000	< 10000	< 10000	< 100	–	–	–	–	CC(C)(C)N1CCN(C(=O)c2cnc3ccc(-c4ccc5oc(N)nc5c4)cn23)CC1 [compound 191]
< 10000	< 100	< 1000	< 100	–	–	–	–	COC(=O)N1CCN(c2cnc3ccc(-c4ccc5oc(N)nc5c4)cc3n2)CC1 [compound 193]
–	–	–	–	< 10000	< 100	< 10000	< 100	Nc1nc2cc(-c3ccc4ncc(C(=O)N5CCC5)n4c3)ccc2o1 [compound 197]
–	–	–	–	< 1000	< 100	< 100	< 100	CN1CCC(NC(=O)c2cnc3ccc(-c4ccc5oc(N)nc5c4)nn23)CC1 [compound 203]
–	–	–	–	< 10000	< 1000	< 100	< 100	CNC(=O)C1CN(c2cnc3ccc(-c4ccc5oc(N)nc5c4)cc3n2)C1 [compound 214]
–	–	–	–	< 10000	< 1000	< 1000	< 100	Nc1nc2cc(-c3ccc4ncc(N5CC(C(=O)NC6CC6)C5)nc4c3)ccc2o1 [compound 215]
–	–	–	–	< 10000	< 100	< 1000	< 100	Nc1nc2cc(-c3ccc4ncc(N5CC(O)C5)nc4c3)ccc2o1 [compound 216]
–	–	–	–	< 1000	< 1000	< 1000	< 100	CN(C)CC(=O)N1CCN(c2cnc3ccc(-c4ccc5oc(N)nc5c4)cc3n2)CC1 [compound 217]
–	–	–	–	< 1000	< 10000	< 1000	< 1000	CCN(CC)CCNc1cnc2ccc(-c3ccc4oc(N)nc4c3)cc2n1 [compound 218]
–	–	–	–	< 100	< 1000	< 1000	< 100	Nc1nc2cc(-c3ccc4ncc(NCCCN5CCOCC5)nc4c3)ccc2o1 [compound 222]
–	–	–	–	< 100	< 10000	< 1000	< 100	CN1CCN(C2CCN(c3cnc4ccc(-c5ccc6oc(N)nc6c5)cc4n3)CC2)CC1 [compound 227]
–	–	–	–	< 10000	< 1000	< 1000	< 10000	Nc1nc2ccc(-c3ccc4nnc(-c5ccncc5)n4c3)cc2o1 [compound 230]
–	–	–	–	< 10000	< 1000	< 1000	< 1000	COc1nc(-c2ccc3oc(N)nc3c2)cnc1N [compound 238]
–	–	–	–	< 10000	< 10000	< 1000	< 10000	CC(Oc1nc(-c2ccc3oc(N)nc3c2)cnc1N)C(F)(F)F (centres unmarked) [compound 239]
–	–	–	–	< 1000	< 100	< 100	< 100	Nc1nc2ccc(-c3ccc4sc(N)nc4c3)cc2o1 [compound 249]
–	–	–	–	< 100	< 100	< 100	< 100	CC(=O)Nc1nc2cc(-c3ccc4nc(N)oc4c3)ccc2s1 [compound 251]
–	–	–	–	< 10000	< 10000	< 10000	< 10000	Nc1nc2cc(-c3ccc4ncn(CCN5CCCC5)c(=O)c4c3)ccc2o1 [compound 255]
–	–	–	–	< 1000	< 1000	< 1000	< 1000	CCN(CC)CCNC(=O)c1cnc2ccc(-c3ccc4oc(N)nc4c3)cn12 [compound 295]
–	–	–	–	< 100	< 10000	< 10000	< 1000	CCN(CC)CCCNC(=O)c1cnc2ccc(-c3ccc4oc(N)nc4c3)cn12 [compound 302]
–	–	–	–	< 1000	< 100	< 10000	< 1000	CC(=O)Nc1nc(C)c(-c2ccc3oc(N)nc3c2)s1 [compound 312]
–	–	–	–	< 10000	< 10000	< 10000	< 1000	Nc1nc2cc(-c3ccc4ncc(N5CC(N6CCCC6)C5)nc4c3)ccc2o1 [compound 314]
–	–	–	–	< 10000	< 1000	< 1000	< 100	Nc1nc2cc(-c3ccc4ncc(N5CC(n6ccnc6)C5)nc4c3)ccc2o1 [compound 319]
–	–	–	–	< 10000	< 1000	< 10000	< 100	CN1CCN(C2CN(c3cnc4ccc(-c5ccc6oc(N)nc6c5)cc4n3)C2)CC1=O [compound 323]
–	–	–	–	< 1000	< 1000	< 1000	< 100	Nc1nc2cc(-c3ccc4ncc(N5CC(N6CCNCC6)C5)nc4c3)ccc2o1 [compound 326]
–	–	–	–	< 1000	< 10000	< 1000	< 100	CCN1CCN(C2CN(c3cnc4ccc(-c5ccc6oc(N)nc6c5)cc4n3)C2)CC1 [compound 329]
–	–	–	–	< 10000	< 1000	< 100	< 1000	C[C@H]1CN(c2cnc3ccc(-c4ccc5oc(N)nc5c4)cc3n2)CCN1C [compound 332]
–	–	–	–	< 1000	< 1000	< 1000	< 100	Cc1cn(C2CN(c3cnc4ccc(-c5ccc6oc(N)nc6c5)cc4n3)C2)cn1 [compound 339]
–	–	–	–	< 1000	< 10000	< 10000	< 100	Cc1nccn1C1CCN(c2cnc3ccc(-c4ccc5oc(N)nc5c4)cc3n2)CC1 [compound 344]
–	–	–	–	< 10000	< 1000	< 10000	< 1000	Cc1cc(-c2ccc3oc(N)nc3c2)cc2c(C(=O)N3CCOCC3)cnn12 [compound 357]
